# Assay results reported in patent publication US7087627B1, “Combinations for the treatment of diseases involving angiogenesis” (Angiogene Pharmaceuticals Ltd., priority 1999, dated 2006).
# Key:
# SaS tumours = assay: Induction of necrosis in SaS tumours; type: in vivo; conditions: SaS tumour-bearing mice, tumours excised after 24 h, mean score 1-10 by area of necrosis
# Description: Mice bearing either CaNT or SaS tumours were treated with the test compound and tumours excised after 24 h, fixed in formalin, embedded in paraffin, sectioned and stained with haematoxylin and eosin. Sections were scored based on area of necrosis as follows:
# In this assay the effect of a given dose of either a vascular damaging agent or a nitric oxide synthase inhibitor administered alone can be compared with the effect of a combination of the two agents.
# CaNT tumours = assay: Tumour functional vascular volume measured by fluorescent dye Hoechst 33342; type: in vivo; conditions: CaNT tumour-bearing mice; CA4P 25 mg/kg alone, intra peritoneal; 24 hours after treatment
# Description: Activity Against Tumour Vasculature Measured by Fluorescent Dye.
# Tumour functional vascular volume in CaNT tumour-bearing mice was measured using the fluorescent dye Hoechst 33342 according to the method of Smith et al (Brit J Cancer 57, 247–253, 1988). The fluorescent dye was dissolved in saline at 6.25 mg/ml and injected intravenously at 10 mg/kg 24 hours after intra peritoneal drug treatment. One minute later, animals were killed and tumours excised and frozen; 10 μm sections were cut at 3 different levels and observed under UV illumination using an Olympus microscope equipped with epifluorescence. Blood vessels were identified by their fluorescent outlines and vascular volume was quantified using a point scoring system based on that described by Chalkley, (J Natl Cancer Inst, 4, 47–53, 1943). All estimates were based on counting a minimum of 100 fields from sections cut at the 3 different levels.
SMILES,Necrosis score ± SEM (n) (SaS tumours; AMP 10 mg/kg alone),Vascular Volume % ± SEM (n) (CaNT tumours),Necrosis score ± SEM (n) (SaS tumours; CA4P 500 mg/kg alone)
"Cc1ccnc(N)c1 [AMP, 2-amino-4-methylpyridine]",1.0,–,–
"COc1ccc(/C=C\c2cc(OC)c(OC)c(OC)c2)cc1OP(=O)(O)O [CA4P, Combretastatin A4 phosphate]",–,1.03 ± 0.14 (4) %,1.7 ± 0.7
